From patent publication US10940151B2, “Methods for treating renal disease” (Beth Israel Deaconess Medical Center, Inc., priority 2012, dated 2021)
“Also recorded” adds a separate entry of the source.

Tests used:
Type in all cases: cell-based
[1] = test system: APOL1 expression in endothelial cells; assay: APOL1 expression in endothelial cells treated with TLR3 agonist poly(I:C) and inhibitors; conditions: TLR3 agonist poly(I:C) (FIG. 8-13)
Protocol: Endothelial cells were treated with the TLR3 agonist poly(I:C) and with JAK inhibitors (FIGS. 8A-8D), Bx795(a TBK1/IKKe inhibitor) (FIG. 9), and chloroquine (FIG. 10). […] The TBK1/IKK e complex is used by both TLR and Rig-like receptor signaling mechanisms, and therefore offers a broader target for inhibition of APOL1 expression than either pathway alone. Chloroquine and similar class of compounds may be particularly useful for inhibiting APOL1 expression when that expression is driven by endosomal pattern recognition receptors such as TLR3, TLR7, TLR8, TLR9, and in some cases TLR4. Even though TLR3 expression is described above as an example, these strategies are likely to be effective in blocking APOL1 expression driven by multiple inflammatory stimuli.
Endothelial cells were treated with the TLR3 agonist poly(I:C) and with NF-κB inhibitors (FIG. 11), PKR inhibitors (FIG. 12), and MAP kinase inhibitors (FIG. 13).

[2] = test system: APOL1 mRNA expression in endothelial cells; assay: APOL1 mRNA expression in endothelial cells treated with interferon beta and JAK inhibitors; conditions: interferon beta (FIG. 4A-4C)
Description: JAK inhibitors are in clinical testing for autoimmune disease, transplant immunosuppression, and myelodysplastic syndromes. They are selective, rather than specific, for individual JAK inhibitors. For example, WHI-P131 targets JAK3, INCB018424 (ruxolitinib) targets […] and JAK2, and TG101348 targets JAK2.

[3] = test system: APOL1 expression in podocytes; assay: APOL1 expression in podocytes treated with TLR3 agonist poly(I:C) and inhibitors; conditions: podocytes (not shown)
[4] = test system: APOL1 mRNA expression in endothelial cells; assay: APOL1 mRNA expression in endothelial cells after stimulation with interferons, TLR/RIG agonists or bacterial DNA; conditions: interferon stimulation (FIG. 3A, 3B)
Description: HIV is a powerful inducer of APOL1 renal disease in individuals with the renal risk genotype. Other viruses such as parvovirus have been associated with FSGS. […] Cells have extracellular, endosomal, and cytoplasmic viral sensors such as TLRs, Rig-L1, and others. These genes are potential targets for reducing APOL1 expression.

APOL1 expression = assay: shRNA knockdown experiments on poly(I:C)-induced APOL1 upregulation; conditions: polyI:C versus control, GFP virus control (FIG. 14)
Description: To validate pharmacologic targets that may regulate pathogenic APOL1 expression, we used shRNA to determine specific genes that mediate the APOL1 upregulation induced by poly(I:C). These experiments allowed us to confirm targets identified above by pharmacologic methods and to identify additional known targets in these same pathways. […] The data shown in FIG. 14 validates several pathways identified by the pharmacological experiments described above and identifies additional pathways that can be targeted to decrease pathogenic APOL1 expression.

Which “effect on poly(I:C) induced APOL1 upregulation (in words)” value [1] does the source give for Nc1ccc2ncnc(NCCc3ccc(Oc4ccccc4)cc3)c2c1 [6A4Q, 6-amino-4-(4-phenoxyphenylethylamino) quinazoline] here?
Its value is “could be inhibited”.

For CC(C)(C)c1ccc(S(=O)(=O)/C=C/C#N)cc1 [Bay 11-7085], which “effect on poly(I:C) induced APOL1 upregulation (in words)” value [1] is on record?
The value was “could be inhibited”.

For O=C(NCCCNc1nc(Nc2cccc(NC(=O)N3CCCC3)c2)ncc1I)c1cccs1 [Bx795], which “effect on poly(I:C) induced APOL1 upregulation (in words)” value [1] is on record?
The value was “reduced the poly(I:C) induced increased in APOL1 expression”.

With N#CC[C@H](C1CCCC1)n1cc(-c2ncnc3[nH]ccc23)cn1 [INCB018424] as the compound, how does the “effect on APOL1 upregulation caused by interferon beta (in words)” value (“effect on APOL1 upregulation caused” below) [2] read?
The value was “block the potentially pathologic upregulation of APOL1”.

C[S+]([O-])c1ccc(-c2nc(-c3ccncc3)c(-c3ccc(F)cc3)[nH]2)cc1 (stereo not shown) [SB203580] was tested. Which “effect on poly(I:C) induced APOL1 upregulation (in words)” value [1] did it give?
The value was “inhibited blocked poly(I:C) induced APOL1 upregulation; also recorded: inhibited APOL1 expression”.

Which “inhibition of APOL1 expression” value [3] does the source give for Oc1c2ccccc2c2c3c(cccc13)N=N2 [SP600125] here?
The value was 50%.

Which “effect on APOL1 upregulation caused” value [2] does the source give for Cc1cnc(Nc2ccc(OCCN3CCCC3)cc2)nc1Nc1cccc(S(=O)(=O)NC(C)(C)C)c1 [TG101348] here?
Its value is “block the potentially pathologic upregulation of APOL1”.

COc1cc2ncnc(Nc3ccc(O)cc3)c2cc1OC [WHI-P131] was tested. Which “effect on APOL1 upregulation caused” value [2] did it give?
Its value is “block the potentially pathologic upregulation of APOL1”.

Which “effect on poly(I:C) induced APOL1 upregulation (in words)” value [1] does the source give for CCN(CC)CCCC(C)Nc1ccnc2cc(Cl)ccc12 (stereo not shown) [chloroquine] here?
Its value is “reduced the poly(I:C) induced increased in APOL1 expression”.

Which results are given for O=C1Nc2ccc3ncsc3c2/C1=C/c1c[nH]cn1 [imidazolo-oxindole PKR inhibitor]?
effect on poly(I:C) induced APOL1 upregulation (in words) [1]: blocks APOL1 upregulation; effect on poly(I:C) induced APOL1 upregulation (in words) ([1]; listed as drawing 4): completely blocked poly(I:C) induced APOL1 upregulation

For “interferon gamma: type 2 (gamma) interferon”, which “upregulation of APOL1” value [4] is on record?
Its value is “up to 200 fold”.

How did the “stimulation of APOL1 expression (in words)” value (APOL1 expression) turn out when polyI:C was run?
The value was “strongly stimulates APOL1 expression”.
